Data: US5922697A, “Compounds, compositions and methods for inhibiting the binding of proteins containing an SH2 domain to cognate phosphorylated proteins” (Warner-Lambert Company, priority 1998, dated 1999)
Where two headings read alike, the source gives them in different places.

Experiments:
[1] = target: T1, Grb2 SH2-GST binding to PDGF receptor kinase domain (Homo sapiens, UniProt P62993); experiment: Inhibition of activated PDGF receptor binding to 35S-SH2 domains: Grb2 SH2-GST; settings: 35S-Grb2 SH2-GST, immobilized PDGF receptor kinase domain, pH 7.5, room temperature, 30 minutes
T1 construct: S-X-SH2-GST (X=Src, Ab1, Grb2, p85-N, p85-C, Syp-N, and PLCy-C domains)
T1 sequence (P62993 60-152 limits assumed): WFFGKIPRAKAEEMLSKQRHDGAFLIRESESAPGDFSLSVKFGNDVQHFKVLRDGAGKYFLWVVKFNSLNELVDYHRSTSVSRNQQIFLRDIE

[2] = target: T2, PLCγ(C) SH2-GST binding to PDGF receptor kinase domain (Homo sapiens, UniProt P19174); experiment: Inhibition of activated PDGF receptor binding to 35S-SH2 domains: PLCγ(C) SH2-GST; settings: 35S-PLCγ(C) SH2-GST, immobilized PDGF receptor kinase domain, pH 7.5, room temperature, 30 minutes
T2 construct: S-X-SH2-GST (X=Src, Ab1, Grb2, p85-N, p85-C, Syp-N, and PLCy-C domains)
T2 sequence (P19174 668-756 limits assumed): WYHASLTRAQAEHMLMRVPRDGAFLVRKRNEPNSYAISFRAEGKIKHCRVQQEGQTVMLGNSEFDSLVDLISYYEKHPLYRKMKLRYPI

[3] = target: T3, Abl SH2-GST binding to PDGF receptor kinase domain (Homo sapiens, UniProt P00519); experiment: Inhibition of activated PDGF receptor binding to 35S-SH2 domains: Abl SH2-GST
T3 construct: S-X-SH2-GST (X=Src, Ab1, Grb2, p85-N, p85-C, Syp-N, and PLCy-C domains)
T3 sequence (P00519 127-217 limits assumed): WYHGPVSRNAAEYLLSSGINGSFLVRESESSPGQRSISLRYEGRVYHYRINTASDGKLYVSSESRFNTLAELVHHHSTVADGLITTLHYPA
Method: Inhibition of Activated PDGF Receptor Binding to ^35 S-SH2 Domains
The assay was conducted at room temperature for 30 minutes while continuously inverting the plate. The resultant SH2-GST-PDGF receptor kinase complex was separated from excess ^35 S-SH2-GST protein by vacuum filtration and the amount of bound SH2-GST was determined by scintillation counting. Results are expressed as IC50 values and/or % inhibition at specified concentrations in Table 2 below.

[4] = target: T4, Syp(N) SH2-GST binding to PDGF receptor kinase domain (Homo sapiens, UniProt Q06124); experiment: Inhibition of activated PDGF receptor binding to 35S-SH2 domains: Syp(N) SH2-GST; settings: 35S-Syp(N) SH2-GST, immobilized PDGF receptor kinase domain, pH 7.5, room temperature, 30 minutes
T4 construct: S-X-SH2-GST (X=Src, Ab1, Grb2, p85-N, p85-C, Syp-N, and PLCy-C domains)
T4 sequence (Q06124 6-102): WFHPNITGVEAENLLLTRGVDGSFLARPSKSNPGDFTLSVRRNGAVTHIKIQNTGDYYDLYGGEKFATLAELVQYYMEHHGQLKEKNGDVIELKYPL

[5] = target: T5, p85(C) SH2-GST binding to PDGF receptor kinase domain (Homo sapiens, UniProt P27986); experiment: Inhibition of activated PDGF receptor binding to 35S-SH2 domains: p85(C) SH2-GST; settings: 35S-p85(C) SH2-GST, immobilized PDGF receptor kinase domain, pH 7.5, room temperature, 30 minutes
T5 construct: S-X-SH2-GST (X=Src, Ab1, Grb2, p85-N, p85-C, Syp-N, and PLCy-C domains)
T5 sequence (P27986 624-718 limits assumed): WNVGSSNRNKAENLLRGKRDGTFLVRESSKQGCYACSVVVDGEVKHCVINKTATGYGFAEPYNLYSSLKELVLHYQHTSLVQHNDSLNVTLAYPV

Abl SH2 = target: T6, Abl SH2 (Homo sapiens, UniProt P00519); experiment: Inhibition of 125I-phosphopeptide binding to immobilized Abl SH2; settings: competitive 125I-phosphopeptide displacement, GST-Abl SH2 fusion protein, pH 7.5, room temperature, 20 minutes
T6 construct: glutathione-S-transferase(GST)-Abl SH2 fusion protein
T6 sequence (P00519 127-217 limits assumed): T3 sequence (P00519 127-217 limits assumed)
Method: The binding affinities of compounds of the present invention to Abl SH2 was determined using a competitive radiolabeled phosphopeptide displacement assay. […] Binding was performed at room temperature for 20 minutes while continuously inverting the plate.

Swiss 3T3 cells = experiment: Inhibition of DNA synthesis as monitored by 3H-thymidine uptake; format: cell-based; settings: Swiss 3T3 cells stimulated with growth factor (PDGFbb or Fetal Bovine Serum), 24 hours; compound concentration not given
Method: Inhibition of DNA Synthesis as Monitored by ^3 H-Thymidine Uptake
DNA synthesis occurs when a cell is exposed to Platelet Derived Growth Factor (PDGF). For PDGF-induced DNA synthesis to occur, c-SRC or another member of the SRC gene family is required. The ability of the SRC SH2 inhibitors of the present invention to block PDGF-stimulated DNA synthesis can be assessed using the protocol set forth below.
Swiss 3T3 cells were grown in 12-well plates for 3 days to approximately 50% confluency. The growth media was removed and replaced with 1.0 mL/well of assay buffer (Dulbecco's Modified Eagle Medium containing 0.2% Bovine Serum Albumin), and incubated for 24 hours to arrest growth.
Test compounds (5 μL) were add at 100 times their final concentration. Methyl sulfoxide was used as a control and levels in all wells kept under 1.0% of DMSO. Cells were then stimulated with growth factor (PDGFbb or Fetal Bovine Serum), and allowed to incubate another 24 hours.
During the final 2 hours of treatment, 5 uL of 0.1 μCi/μL ^3 H-thymidine was added to each well (final=0.5 μCi/well)
After incubation the medium was removed by aspiration, and each well was washed twice with ice-cold phosphate buffered saline (0.5 mL/wash). 0.5 mL ice-cold 5% trichloroacetic acid was added to each well and incubated on ice for a minimum 10 minutes. The trichloroacetic acid solution was removed and each well was washed twice with 0.5 mL ice-cold trichloroacetic acid, and then once with ice-cold water (0.5 mL). 0.5 mL of 2% Sodium Dodecyl Sulfate was added to each well to solubilize the cells and allowed to incubate at room temperature for 10-15 minutes. The solubilized cells were transfered to 20 mL scintillation vials. Each well was washed with 0.5 mL of water and combined with the corresponding scintillation vial. 10 mL of Ready-Gel scintillation cocktail was added to each vial and the vials were then counted in a scintillation counter. Results are shown as percent of ^3 H-thymidine uptake relative to control in Table 4 below.

Src SH2 = target: T7, Src SH2 (Homo sapiens, UniProt P12931); experiment: Inhibition of 125I-phosphopeptide binding to immobilized Src SH2; settings: competitive 125I-phosphopeptide displacement, GST-Src SH2 fusion protein, pH 7.5, room temperature, 20 minutes
T7 construct: glutathione-S-transferase(GST)-Src SH2 fusion protein
T7 sequence (P12931 151-248 limits assumed): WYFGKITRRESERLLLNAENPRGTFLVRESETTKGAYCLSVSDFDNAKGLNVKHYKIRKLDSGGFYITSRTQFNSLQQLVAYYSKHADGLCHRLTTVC
Method: The binding affinities of compounds of the present invention to Src SH2 was determined using a competitive radiolabeled phosphopeptide displacement assay.
Binding was performed at room temperature for 20 minutes while continuously inverting the plate. […] Results are expressed as IC50 values in Table 1 below.

[6] = read-out: IC50, Abl SH2 Binding
[7] = read-out: IC50, SRC SH2 Binding

| Structure (SMILES) | IC50 (Abl SH2; IC50, Abl SH2 Binding) [µM] | IC50 (Src SH2; IC50, SRC SH2 Binding) [µM] | other results |
| --- | --- | --- | --- |
| CC(=O)N[C@@H](Cc1ccc(OP(=O)(O)O)cc1)C(=O)NC(C)c1ccc(OCC2CCCCC2)c(C(N)=O)c1 (mixture of isomers) [Example 51, Phosphoric acid mono-(4-{(S)-2-acetylamino-2-[(RS)-1-(3-carbamoyl-4-cyclohexylmethoxy-phenyl)-ethylcarbamoyl]-ethyl}-phenyl) ester] |  |  | IC50 [1]: ~100 µM; IC50 [2]: > 100 µM; IC50 [3]: 12.1 µM; IC50 [4]: ~100 µM; IC50 [5]: > 100 µM |
| CC(=O)N[C@@H](Cc1ccc(C(F)(F)P(=O)(O)O)cc1)C(=O)NC(C)c1ccc(OCC2CCCCC2)c(C(N)=O)c1 (single isomer, unassigned) [Example 63a, [S-(R*,R*)]- or [S-(R*,S*)]-[(4-{2-Acetylamino-2-[1-(3-carbamoyl-4-cyclohexylmethoxy-phenyl)-ethylcarbamoyl]-ethyl]-phenyl)-difluoro-methyl]-phosphonic acid] |  |  | IC50 (Abl SH2; [6]): 2 µM; 3H-Thymidine Uptake, % Uptake Relative to Control (Swiss 3T3 cells): 73%; IC50 (Src SH2; [7]): 0.3 µM |
| CC(=O)N[C@@H](Cc1ccc(C(F)(F)P(=O)(O)OCOC(=O)C(C)(C)C)cc1)C(=O)NC(C)c1ccc(OCC2CCCCC2)c(C(N)=O)c1 (single isomer, unassigned) [Example 77, [S-(R*,R*)]- or [S-(R*,S*)]-2,2-Dimethyl-propionic acid {[(4-{2-Acetylamino-2-[1-(3-carbamoyl-4-cyclohexylmethoxy-phenyl)-ethylcarbamoyl]-ethyl}-phenyl)-difluoro-methyl} hydroxy-phosphinoyloxymethyl ester] |  |  | 3H-Thymidine Uptake, % Uptake Relative to Control (Swiss 3T3 cells): 34% |
| CC(=O)N[C@@H](Cc1ccc(OP(=O)(O)O)cc1)C(=O)N[C@@H](CCC(=O)O)C(=O)N(C)CCCC1CCCCC1 [Example 1, [S-(R*,R*)]-4-[2-Acetylamino-3-(4-phosphonooxy-phenyl)-propionylamino]-4-[(3-cyclohexyl-propyl)-methylcarbamoyl]-butyric acid] |  |  | IC50 [1]: > 100 µM; IC50 [2]: > 100 µM; IC50 [4]: > 100 µM; IC50 [5]: > 100 µM |
| CC(=O)N[C@@H](Cc1ccc(C(F)(F)P(=O)(O)O)cc1)C(=O)N[C@@H](CCC(=O)O)C(=O)N(C)CCCC1CCCCC1 [Example 5, [S-(R*,R*)]-4-{2-Acetylamino-3-[4-(difluoro-phosphonomethyl)-phenyl]-propionylamino}-4-[(3-cyclohexylpropyl)-methyl-carbamoyl]-butyric acid] |  |  | IC50 [1]: > 100 µM; IC50 [2]: > 100 µM; IC50 [4]: > 100 µM; IC50 [5]: > 100 µM |
| CC[C@H](NC(=O)[C@H](Cc1ccc(C(F)(F)P(=O)(O)OCOC(=O)C(C)(C)C)cc1)NC(C)=O)C(=O)N(C)CCCC1CCCCC1 [Example 55, [S-(R*,R*)]-2,2-Dimethyl-propionic acid {[4-(2-acetylamino-2-{1-[(3-cyclohexyl-propyl)-methyl-carbamoyl]-propylcarbamoyl}-ethyl)-phenyl]-difluoro-methyl}-hydroxy-phosphinoyloxymethyl ester] |  |  | IC50 (Abl SH2; [6]): > 100 µM; 3H-Thymidine Uptake, % Uptake Relative to Control (Swiss 3T3 cells): 61%; IC50 (Src SH2; [7]): > 100 µM |
| CCC(CC)(NC(=O)[C@H](Cc1ccc(OP(=O)(O)O)cc1)NC(C)=O)C(=O)NCCCc1ccccc1 [Example 57, (S)-Phosphoric acid mono-(4-{2-acetylamino-2-[1-ethyl-1-(3-phenyl-propylcarbamoyl)-propylcarbamoyl]-ethyl}-phenyl) ester] | 20 | 33 |  |
| CC(=O)N[C@@H](Cc1ccc(OP(=O)(O)O)cc1)C(=O)N[C@H](C(=O)NCCCc1ccccc1)C(C)O (stereo partly drawn) [Example 58, [S-(R*,R*)]-Phosphoric acid mono-(4-{2-acetylamino-2-[2-hydroxy-1-(3-phenyl-propylcarbamoyl)-propylcarbamoyl]-ethyl}-phenyl) ester] | ~60 | 21 |  |
| CN(C)C(=O)N[C@@H](Cc1ccc(OP(=O)(O)O)cc1)C(=O)N[C@@H](CCC(=O)O)C(=O)N(C)CCCC1CCCCC1 [Example 59, [S-(R*,R*)]-4-[(3-Cyclohexyl-propyl)-methyl-carbamoyl]-4-[2-(3,3-dimethyl-ureido)-3-(4-phosphonooxy-phenyl)-propionylaminol-butyric acid] | 4.5 | 1.1 |  |
| CN(CCCC1CCCCC1)C(=O)[C@H](CCC(=O)O)NC(=O)[C@H](Cc1ccc(OP(=O)(O)O)cc1)NS(=O)(=O)N(C)C [Example 60, 5-[(3-cyclohexylpropyl)methylamino]-4-[[2-[[(dimethylamino)-sulfonyl]amino]-1-oxo-3-[4-(phosphonooxy)phenyl]propyl]amino]-5-oxo-pentanoic acid] | 9.7 | 1.9 |  |
| CN(CCCC1CCCCC1)C(=O)[C@H](CCC(=O)O)NC(=O)NCc1ccc(OP(=O)(O)O)cc1 [Example 61, (S)-4-[(3-Cyclohexyl-propyl)--methyl-carbamoyl]-4-[3-(4-phosphonooxy-benzyl)-ureido]-butyric acid] | ~100 | 16 |  |
| CN(CCCC1CCCCC1)C(=O)[C@H](CCC(=O)O)NC(=O)c1ccc(OP(=O)(O)O)cc1 [Example 62, (S)-4-[(3-Cyclohexyl-propyl)-methyl-carbamoyl]-4-(4-phosphonooxy-benzoylamino)-butyric acid] | 44 | 8.3 |  |
| CC(=O)N[C@@H](Cc1ccc(OP(=O)(O)O)cc1)C(=O)NCc1ccc(OCC2CCCCC2)c(C(=O)NO)c1 [Example 70, (S)-Phosphoric acid mono-{4-[2-acetylamino-2-(4-cyclohexylmethoxy-3-hydroxycarbamoyl-benzylcarbamoyl)-ethyl]-phenyl} ester] | 16 | 24 |  |
| CCc1ccccc1COc1ccc(CNC(=O)[C@H](Cc2ccc(OP(=O)(O)O)cc2)NC(C)=O)cc1C(N)=O [Example 72, (S)-Phosphoric acid mono-(4-{2-acetylamino-2-[3-carbamoyl-4-(2-ethyl-benzyloxy)-benzylcarbamoyl]-ethyl}-phenyl) ester] | 28 | 6.2 |  |
| NC(=O)c1cc(CNC(=O)Nc2ccc(OP(=O)(O)O)cc2)ccc1OCC1CCCCC1 [Example 74, Phosphoric acid mono-{4-[3-(3-carbamoyl-4-cyclohexylmethoxy-benzyl)-ureido]-phenyl} ester] | > 100 | 20 |  |
| NC(=O)c1cc(CNC(=O)NCc2ccc(OP(=O)(O)O)cc2)ccc1OCC1CCCCC1 [Example 76, Phosphoric acid mono-{4-[3-(3-carbamoyl-4-cyclohexylmethoxy-benzyl)-ureidomethyl]-phenyl} ester] | > 100 | 34 |  |
